Experimental data taken from the supplement of paper PMC10331698.
± gives the standard deviation of the averaged measurements.

Key:
Test in all cases: level (log10 ratio to DMSO vehicle control); higher = higher biomarker level / cell amount than vehicle control
[1] = compound: C=C(C)C(=O)OCCC(F)(F)C(F)(F)C(F)(F)C(F)(F)C(F)(F)C(F)(F)F [6:2 Fluorotelomer methacrylate]; conditions: in DMSO
Protocol: (§1)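 BioMAP Diversity Plus panel of 12 human primary cell co-culture systems (3C, 4H, LPS, SAg, BT, BF4T, BE3C, CASM3C, HDF3CGF, KF3CT, MyoF, Mphg). Compounds were added 1 h before stimulation and left for 24 h (MyoF 48 h; BT 72 h for soluble read-outs or 6 d for IgG). Biomarkers were read by ELISA, cytotoxicity by SRB, PBMC viability and proliferation by Alamar Blue. Each well value was divided by the mean of 8 DMSO control wells on the same plate and log10 transformed; duplicate blinded samples were tested at 4 concentrations.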

[2] = compound: C=CC(=O)OCC(F)(F)C(F)(F)C(F)(F)COC(=O)C=C [1H,1H,5H,5H-Perfluoro-1,5-pentanediol diacrylate]; conditions: 6700 nM; in DMSO
Protocol: as §1

[3] = compound: FC(F)(F)C(F)(F)C(F)(F)C(F)(F)C(F)(F)C(F)(F)C(F)(F)I [1-Iodopentadecafluoroheptane]; conditions: in DMSO
Protocol: as §1

Octafluoroadipamide = compound: NC(=O)C(F)(F)C(F)(F)C(F)(F)C(F)(F)C(N)=O [Octafluoroadipamide]; conditions: in DMSO
Protocol: as §1

[4] = compound: NS(=O)(=O)C(F)(F)C(F)(F)C(F)(F)C(F)(F)C(F)(F)C(F)(F)F [Perfluorohexanesulfonamide]; conditions: in DMSO
Protocol: as §1

[5] = compound: O=S(=O)(O)CCC(F)(F)C(F)(F)C(F)(F)C(F)(F)C(F)(F)C(F)(F)F [6:2 Fluorotelomer sulfonic acid]; conditions: in DMSO
Protocol: as §1

| Test System | level (log10) ([1]; 6700 nM) | level (log10) ([1]; 20000 nM) | level (log10) ([1]; 60000 nM) | level (log10) [2] | level (log10) ([3]; 6700 nM) | level (log10) ([3]; 20000 nM) | level (log10) (Octafluoroadipamide; 6700 nM) | level (log10) (Octafluoroadipamide; 20000 nM) | level (log10) (Octafluoroadipamide; 60000 nM) | level (log10) ([4]; 6700 nM) | level (log10) ([4]; 20000 nM) | level (log10) ([4]; 60000 nM) | level (log10) ([5]; 6700 nM) | level (log10) ([5]; 20000 nM) | level (log10) ([5]; 60000 nM) |
| --- | --- | --- | --- | --- | --- | --- | --- | --- | --- | --- | --- | --- | --- | --- | --- |
| HDF3CGF:Collagen I | -0.0655 ± 0.022 | -0.0695 ± 0.049 | 0.0095 ± 0.097 | 0.117 ± 0.0085 | 0.017 ± 0.033 | -0.005 ± 0.017 | -0.005 ± 0.0057 | -0.015 ± 0.033 | 0.0045 ± 0.042 | 0.005 ± 0.035 | 0.0075 ± 0.011 | -0.0435 ± 0.015 | -0.031 ± 0.095 | -0.007 ± 0.086 | 0.056 ± 0.11 |
| HDF3CGF:Collagen III | -0.0285 ± 0.044 | -0.007 ± 0.041 | 0.003 ± 0.052 | -0.177 ± 0.015 | -0.024 ± 0.014 | -0.023 ± 0.028 | 0.0035 ± 0.044 | 0.0225 ± 0.00071 | 0.023 ± 0.052 | 0.0055 ± 0.022 | 0.0305 ± 0.011 | -0.1 ± 0.018 | -0.0555 ± 0.015 | -0.0115 ± 0.019 | 0.03 ± 0.093 |
| HDF3CGF:EGFR | 0.004 ± 0.0071 | 0.0275 ± 0.028 | 0.0155 ± 0.0092 | -0.016 ± 0.025 | 0.011 ± 0.02 | 0.0135 ± 0.042 | -0.012 ± 0.082 | 0.0015 ± 0.054 | 0.0145 ± 0.087 | 0.0525 ± 0.0064 | 0.043 ± 0.024 | -0.103 ± 0.059 | -0.0455 ± 0.022 | -0.0535 ± 0.025 | -0.0305 ± 0.029 |
| HDF3CGF:M-CSF | -0.02 ± 0.0057 | -0.022 ± 0.0099 | -0.029 ± 0.0028 | -0.482 ± 0.027 | -0.0165 ± 0.018 | -0.0165 ± 0.0064 | -0.017 ± 0.054 | -0.0215 ± 0.073 | 0.023 ± 0.0028 | 0.0285 ± 0.037 | 0.0395 ± 0.035 | -0.065 ± 0.038 | -0.0255 ± 0.073 | -0.044 ± 0.068 | -0.082 ± 0.085 |
| HDF3CGF:MMP-1 | 0.023 ± 0.0085 | 0.031 ± 0.0028 | 0.039 ± 0.0057 | -0.3945 ± 0.00071 | -0.0105 ± 0.0021 | -0.0285 ± 0.018 | 0.0035 ± 0.005 | 0.002 ± 0.011 | 0.0045 ± 0.012 | 0.0145 ± 0.0064 | 0.0155 ± 0.0035 | -0.0185 ± 0.028 | -0.015 ± 0.027 | -0.039 ± 0.03 | -0.036 ± 0.064 |
| HDF3CGF:PAI-I | -0.0695 ± 0.083 | -0.057 ± 0.064 | -0.0415 ± 0.057 | -0.85 ± 0.033 | -0.044 ± 0.0071 | -0.064 ± 0.023 | 0.018 ± 0.0099 | 0.018 ± 0.0014 | 0.009 ± 0.0014 | -0.0075 ± 0.083 | 0.081 ± 0.0071 | -0.0365 ± 0.037 | 0.005 ± 0.0042 | -0.0015 ± 0.0035 | -0.01 ± 0.011 |
| HDF3CGF:Proliferation 72hr | -0.0385 ± 0.035 | -0.0525 ± 0.015 | -0.0545 ± 0.0021 | -0.689 ± 0.0099 | -0.0275 ± 0.005 | -0.135 ± 0.02 | -0.041 ± 0.052 | 0.0825 ± 0.05 | -0.0115 ± 0.029 | 0.058 ± 0.03 | 0.0595 ± 0.0078 | -0.267 ± 0.028 | 0.0015 ± 0.019 | 0.0725 ± 0.03 | 0.0405 ± 0.036 |
| HDF3CGF:SRB | 0.02 ± 0.0071 | 0.0315 ± 0.005 | 0.033 ± 0.013 | -0.458 ± 0.051 | 0.013 ± 0.021 | -0.002 ± 0.016 | -0.0135 ± 0.047 | -0.0225 ± 0.066 | -0.0195 ± 0.046 | -0.0045 ± 0.0064 | -0.009 ± 0.052 | -0.002 ± 0.033 | 0.0055 ± 0.044 | 0.0255 ± 0.056 | 0.023 ± 0.085 |
| HDF3CGF:TIMP-1 | -0.049 ± 0.028 | -0.0115 ± 0.0078 | -0.0055 ± 0.0035 | -0.245 ± 0.011 | -0.0185 ± 0.0021 | -0.024 ± 0.0042 | 0.002 ± 0.0071 | 0.0015 ± 0.012 | 0.0035 ± 0.021 | 0.0235 ± 0.0078 | 0.048 ± 0.021 | 0.05 ± 0.017 | 0.0225 ± 0.08 | -0.0045 ± 0.076 | 0.0175 ± 0.13 |
| KF3CT:CCL2/MCP-1 | -0.051 ± 0.021 | -0.0475 ± 0.005 | -0.0235 ± 0.005 | -0.0955 ± 0.018 | 0.0065 ± 0.0092 | 0.0015 ± 0.016 | -0.017 ± 0.0085 | -0.026 ± 0.013 | -0.001 ± 0.021 | -0.0225 ± 0.021 | -0.0525 ± 0.013 | -0.0145 ± 0.013 | 0.0125 ± 0.00071 | 0.0035 ± 0.013 | -0.0145 ± 0.043 |
| KF3CT:CD54/ICAM-1 | 0.006 ± 0.016 | -0.014 ± 0.031 | -0.0075 ± 0.005 | -0.076 ± 0.0042 | -0.015 ± 0.0085 | -0.018 ± 0.021 | -0.0015 ± 0.0021 | -0.003 | 0.0115 ± 0.022 | -0.0235 ± 0.015 | -0.019 ± 0.0085 | -0.0285 ± 0.025 | -0.0095 ± 0.0064 | -0.0265 ± 0.0035 | -0.037 ± 0.0071 |
| KF3CT:CXCL8/IL-8 | -0.004 ± 0.0057 | 0.0085 ± 0.011 | -0.007 ± 0.011 | -0.041 ± 0.027 | 0.0135 ± 0.0021 | 0.014 ± 0.0028 | -0.005 | -0.0055 ± 0.0021 | 0.0095 ± 0.023 | -0.039 ± 0.023 | -0.0345 ± 0.0092 | -0.0395 ± 0.03 | -0.0005 ± 0.035 | -0.001 ± 0.027 | -0.0455 ± 0.022 |
| KF3CT:CXCL9/MIG | 0.012 ± 0.0042 | 0.01 ± 0.0028 | 0.01 ± 0.02 | -0.0275 ± 0.013 | 0.0115 ± 0.022 | 0.012 ± 0.014 | 0.0075 ± 0.0064 | 0.0035 ± 0.005 | 0.0075 ± 0.005 | 0.0005 ± 0.0035 | -0.0075 ± 0.016 | -0.008 ± 0.0057 | 0.0005 ± 0.013 | -0.0025 ± 0.022 | 0.0005 ± 0.013 |
| KF3CT:CXCL10/IP-10 | 0.019 ± 0.0057 | 0.0245 ± 0.013 | 0.031 ± 0.0014 | -0.023 ± 0.0085 | -0.005 ± 0.014 | -0.0085 ± 0.00071 | -0.002 ± 0.0042 | 0.002 ± 0.0071 | 0.0005 ± 0.005 | -0.012 ± 0.013 | -0.019 ± 0.014 | -0.0875 ± 0.0035 | -0.0105 ± 0.011 | -0.0055 ± 0.015 | -0.0135 ± 0.00071 |
| KF3CT:IL-1alpha | -0.033 ± 0.025 | -0.0395 ± 0.029 | -0.0335 ± 0.026 | -0.125 ± 0.02 | -0.006 ± 0.0042 | -0.004 ± 0.0071 | 0.014 ± 0.0028 | 0 ± 0.037 | 0.017 ± 0.017 | 0.026 ± 0.025 | 0.03 ± 0.028 | 0.052 ± 0.02 | 0.0115 ± 0.016 | 0.0005 ± 0.016 | -0.0255 ± 0.039 |
| KF3CT:MMP-9 | -0.0275 ± 0.056 | -0.0145 ± 0.03 | -0.009 ± 0.0042 | -0.0525 ± 0.043 | -0.05 ± 0.11 | -0.0495 ± 0.056 | -0.0325 ± 0.016 | -0.023 ± 0.0014 | -0.0115 ± 0.03 | -0.015 ± 0.02 | -0.039 ± 0.03 | -0.093 ± 0.021 | -0.0285 ± 0.019 | 0.0085 ± 0.018 | 0.026 ± 0.0028 |
